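Step 1: Grow cells in 96-well plates. Step 2: Expose to compound for 48 hours at 5 concentrations. Step 3: Interpolate endpoints linearly; if unreached, use highest concentration. GI50 = concentration required for 50% inhibition of growth. The concentration for full growth arrest is given as TGI.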
Legend:
Experiment in all cases: growth of human tumour cells (NCI), 48 h
SK-MEL-5 melanoma = test system: SK-MEL-5 melanoma
OVCAR-4 ovarian = test system: OVCAR-4 ovarian
HOP-92 NSCLC = test system: HOP-92 NSCLC
SW-620 colon = test system: SW-620 colon
TK-10 renal = test system: TK-10 renal
A549 NSCLC = test system: A549 NSCLC
NCI-H23 lung = test system: NCI-H23 lung
CCRF-CEM leukemia = test system: CCRF-CEM leukemia
RXF 393 renal = test system: RXF 393 renal
BT-549 breast = test system: BT-549 breast
SR leukemia = test system: SR leukemia
NCI-H226 lung = test system: NCI-H226 lung
OVCAR-5 ovarian = test system: OVCAR-5 ovarian
MDA-MB-231 breast = test system: MDA-MB-231 breast
HCC-2998 colon = test system: HCC-2998 colon
DU-145 prostate = test system: DU-145 prostate
HS 578T breast = test system: HS 578T breast
SNB-75 CNS = test system: SNB-75 CNS
NCI-H522 lung = test system: NCI-H522 lung
SF-295 CNS = test system: SF-295 CNS
KM12 colon = test system: KM12 colon
U251 CNS = test system: U251 CNS
PC-3 prostate = test system: PC-3 prostate
COLO 205 colon = test system: COLO 205 colon
HCT-15 colon = test system: HCT-15 colon
NCI/ADR-RES ovarian = test system: NCI/ADR-RES ovarian
SF-539 CNS = test system: SF-539 CNS
HL-60(TB) leukemia = test system: HL-60(TB) leukemia
HT29 colon = test system: HT29 colon

## CN1CCN(c2ccc(C(=O)/C=C/c3cc(C(F)(F)F)ccc3Cl)cc2)CC1
SK-MEL-5 melanoma
  GI50: 3.71 µM
  TGI: 15 µM
OVCAR-4 ovarian
  GI50: 10.7 µM
  TGI: 29 µM
HOP-92 NSCLC
  GI50: 3.79 µM
  TGI: 18.1 µM
SW-620 colon
  GI50: 2.08 µM
  TGI: 4.02 µM
TK-10 renal
  GI50: 13.5 µM
  TGI: 29 µM
A549 NSCLC
  GI50: 3.65 µM
  TGI: 14.8 µM
NCI-H23 lung
  GI50: 3.89 µM
  TGI: 14.2 µM
CCRF-CEM leukemia
  GI50: 2.17 µM
  TGI: 5.93 µM
RXF 393 renal
  GI50: 2.16 µM
  TGI: 11.1 µM
BT-549 breast
  GI50: 5.42 µM
  TGI: 20.4 µM
SR leukemia
  GI50: > 100 µM
  TGI: > 100 µM
NCI-H226 lung
  GI50: 4.55 µM
  TGI: 18.6 µM
OVCAR-5 ovarian
  GI50: 13.9 µM
  TGI: 26.9 µM
MDA-MB-231 breast
  GI50: 2.81 µM
  TGI: 8.01 µM
HCC-2998 colon
  GI50: 1.81 µM
  TGI: 3.2 µM
DU-145 prostate
  GI50: 5.5 µM
  TGI: 20.5 µM
HS 578T breast
  GI50: 5.48 µM
  TGI: 28.7 µM
SNB-75 CNS
  GI50: 2.66 µM
  TGI: 15.6 µM
NCI-H522 lung
  GI50: 12.3 µM
  TGI: 27.9 µM
SF-295 CNS
  GI50: 6.89 µM
  TGI: 19.8 µM
KM12 colon
  GI50: 3.1 µM
  TGI: 9.83 µM
U251 CNS
  GI50: 2.1 µM
  TGI: 4.85 µM
PC-3 prostate
  GI50: 3.06 µM
  TGI: 13.2 µM
COLO 205 colon
  GI50: 3.48 µM
  TGI: 10.7 µM
HCT-15 colon
  GI50: 1.87 µM
  TGI: 3.78 µM
NCI/ADR-RES ovarian
  GI50: 3.5 µM
  TGI: 12.8 µM
SF-539 CNS
  GI50: 1.92 µM
  TGI: 4.38 µM
HL-60(TB) leukemia
  GI50: 2.14 µM
  TGI: 7.53 µM
HT29 colon
  GI50: 2.01 µM
  TGI: 5.02 µM
